From patent publication US10323022B2, “Pyrrolidinyl urea, pyrrolidinyl thiourea and pyrrolidinyl guanidine compounds as TrkA kinase inhibitors” (Array BioPharma Inc., priority 2011, dated 2019)

target: TrkA (Homo sapiens (Human), UniProt P04629); experiment: TrkA Omnia Assay; format: biochemical; conditions: averaged IC50; 20 nM enzyme, 500 μM ATP, 10 μM peptide substrate
Outline: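 Continuous fluorescent kinase read-out (ex 360 nm, em 485 nm) over 70 min, with initial rates fitted to 4- or 5-parameter logistic curves for IC50. Final conditions: 500 μM ATP, 10 μM Omnia Tyr Peptide #4, 20 nM TrkA, MOPS pH 7.5 buffer with MgCl2 and Triton X-100; enzyme and compound preincubated 10 min at ambient temperature.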

Sequence of TrkA (P04629 33-796): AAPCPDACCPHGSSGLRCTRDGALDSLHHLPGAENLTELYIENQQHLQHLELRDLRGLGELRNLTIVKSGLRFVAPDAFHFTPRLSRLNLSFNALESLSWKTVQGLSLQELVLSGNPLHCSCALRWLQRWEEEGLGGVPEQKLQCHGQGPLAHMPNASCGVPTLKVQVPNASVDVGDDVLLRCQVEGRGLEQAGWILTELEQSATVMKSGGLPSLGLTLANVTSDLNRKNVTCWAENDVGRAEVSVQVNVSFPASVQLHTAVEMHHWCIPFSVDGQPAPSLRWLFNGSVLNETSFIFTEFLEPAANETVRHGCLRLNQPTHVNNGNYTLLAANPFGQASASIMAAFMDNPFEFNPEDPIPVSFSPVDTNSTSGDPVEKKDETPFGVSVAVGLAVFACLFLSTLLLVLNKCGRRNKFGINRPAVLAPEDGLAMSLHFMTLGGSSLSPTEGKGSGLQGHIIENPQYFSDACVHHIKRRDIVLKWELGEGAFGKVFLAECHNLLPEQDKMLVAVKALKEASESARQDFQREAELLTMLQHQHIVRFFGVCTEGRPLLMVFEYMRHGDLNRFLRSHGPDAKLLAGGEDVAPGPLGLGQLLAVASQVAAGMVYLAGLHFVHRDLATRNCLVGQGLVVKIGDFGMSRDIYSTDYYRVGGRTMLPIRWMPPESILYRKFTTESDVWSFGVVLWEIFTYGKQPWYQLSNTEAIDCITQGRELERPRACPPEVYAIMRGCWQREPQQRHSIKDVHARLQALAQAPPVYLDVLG

Row | Compound | IC50
1 | COCCN1C[C@@H](NC(=O)Nc2c(C)c(C(C)(C)CO)nn2-c2ccccc2)[C@H](c2ccc(F)c(F)c2)C1 [Example 118, 1-((3S,4R)-4-(3,4-difluorophenyl)-1-(2-methoxyethyl)pyrrolidin-3-yl)-3-(3-(1-hydroxy-2-methylpropan-2-yl)-4-methyl-1-phenyl-1H-pyrazol-5-yl)urea] | < 100 nM
2 | COCCN1C[C@@H](NC(=O)Nc2cc(-c3ccc(Cl)cc3)nn2C)[C@H](c2ccc(F)c(F)c2)C1 [Example 119, 1-(3-(4-chlorophenyl)-1-methyl-1H-pyrazol-5-yl)-3-((3S,4R)-4-(3,4-difluorophenyl)-1-(2-methoxyethyl)pyrrolidin-3-yl)urea] | < 100 nM
3 | COCCN1C[C@@H](NC(=O)Nc2cc(-c3ccc(F)cc3)nn2C)[C@H](c2cc(F)ccc2F)C1 [Example 120, 1-((3S,4R)-4-(2,5-difluorophenyl)-1-(2-methoxyethyl)pyrrolidin-3-yl)-3-(3-(4-fluoro-phenyl)-1-methyl-1H-pyrazol-5-yl)urea] | < 100 nM
4 | COCCN1C[C@@H](NC(=O)Nc2c(C)c(COC)nn2-c2ccccc2)[C@H](c2ccc(F)c(F)c2)C1 [Example 123, 1-((3S,4R)-4-(3,4-difluorophenyl)-1-(2-methoxyethyl)pyrrolidin-3-yl)-3-(3-(methoxy-methyl)-4-methyl-1-phenyl-1H-pyrazol-5-yl)urea] | < 100 nM
5 | COCCN1C[C@@H](NC(=O)Nc2c(C)c(COC)nn2-c2ccccc2)[C@H](c2cc(F)cc(F)c2)C1 [Example 124, 1-((3S,4R)-4-(3,5-difluorophenyl)-1-(2-methoxyethyl)pyrrolidin-3-yl)-3-(3-(methoxy-methyl)-4-methyl-1-phenyl-1H-pyrazol-5-yl)urea] | < 100 nM
6 | COCCN1C[C@@H](NC(=O)Nc2cc(-c3ccc(SC)cc3)nn2C)[C@H](c2ccc(F)c(F)c2)C1 [Example 125, 1-((3S,4R)-4-(3,4-difluorophenyl)-1-(2-methoxyethyl)pyrrolidin-3-yl)-3-(1-methyl-3-(4-(methylthio)phenyl)-1H-pyrazol-5-yl)urea] | < 100 nM
7 | COCCN1C[C@@H](NC(=O)Nc2c3c(nn2-c2ccccc2)CCC3)[C@H](c2ccc(F)cc2)C1 [Example 128, 1-((3S,4R)-4-(4-fluorophenyl)-1-(2-methoxyethyl)pyrrolidin-3-yl)-3-(2-phenyl-2,4,5,6-tetrahydrocyclo-penta[c]pyrazol-3-yl)urea] | < 100 nM
8 | COCCOc1ccc(-c2cc(NC(=O)N[C@@H]3CN(CCOC)C[C@H]3c3ccc(F)c(F)c3)n(C)n2)cc1 [Example 130, 1-((3S,4R)-4-(3,4-difluorophenyl)-1-(2-methoxyethyl)pyrrolidin-3-yl)-3-(3-(4-(2-methoxyethoxy)phenyl)-1-methyl-1H-pyrazol-5-yl)urea] | < 100 nM
9 | COCCN1C[C@@H](NC(=O)Nc2c(OC)c(C)nn2-c2ccccc2)[C@H](c2ccc(F)c(F)c2)C1 [Example 131, 1-((3S,4R)-4-(3,4-difluorophenyl)-1-(2-methoxyethyl)pyrrolidin-3-yl)-3-(4-methoxy-3-methyl-1-phenyl-1H-pyrazol-5-yl)urea] | < 100 nM
10 | COCCN1C[C@@H](NC(=O)Nc2c(C)c(CO)nn2-c2ccccc2)[C@H](c2ccc(F)c(F)c2)C1 [Example 132, 1-((3S,4R)-4-(3,4-difluorophenyl)-1-(2-methoxyethyl)pyrrolidin-3-yl)-3-(3-(hydroxy-methyl)-4-methyl-1-phenyl-1H-pyrazol-5-yl)urea] | < 100 nM
11 | COCCN1C[C@@H](NC(=O)Nc2c(C)c(CCO)nn2-c2ccccc2)[C@H](c2ccc(F)c(F)c2)C1 [Example 133, 1-((3S,4R)-4-(3,4-difluorophenyl)-1-(2-methoxyethyl)pyrrolidin-3-yl)-3-(3-(2-hydroxy-ethyl)-4-methyl-1-phenyl-1H-pyrazol-5-yl)urea] | < 100 nM
12 | COCCc1nn(-c2ccccc2)c(NC(=O)N[C@@H]2CN(CCOC)C[C@H]2c2ccc(F)c(F)c2)c1C [Example 134, 1-((3S,4R)-4-(3,4-difluorophenyl)-1-(2-methoxyethyl)pyrrolidin-3-yl)-3-(3-(2-methoxy-ethyl)-4-methyl-1-phenyl-1H-pyrazol-5-yl)urea] | < 100 nM
13 | COCCN1C[C@@H](NC(=O)Nc2cc(OCc3ccccc3)nn2C)[C@H](c2ccc(F)c(F)c2)C1 [Example 136, 1-(3-(benzyloxy)-1-methyl-1H-pyrazol-5-yl)-3-((3S,4R)-4-(3,4-difluorophenyl)-1-(2-methoxyethyl)pyrrolidin-3-yl)urea] | 100 to 1000 nM
14 | COCCOc1nn(-c2ccccc2)c(NC(=O)N[C@@H]2CN(CCOC)C[C@H]2c2ccc(F)c(F)c2)c1C [Example 137, 1-((3S,4R)-4-(3,4-difluorophenyl)-1-(2-methoxyethyl)pyrrolidin-3-yl)-3-(3-(2-methoxy-ethoxy)-4-methyl-1-phenyl-1H-pyrazol-5-yl)urea] | < 100 nM

More lines, now with the values ahead:

Row | IC50 | Compound
15 | < 100 nM | COCCN1C[C@@H](NC(=O)Nc2c(C)c(C(C)(C)CO)nn2-c2ccccc2)[C@H](c2ccccc2)C1 [Example 117, 1-(3-(1-hydroxy-2-methylpropan-2-yl)-4-methyl-1-phenyl-1H-pyrazol-5-yl)-3-((3S,4R)-1-(2-methoxyethyl)-4-phenylpyrrolidin-3-yl) urea]
16 | < 100 nM | COCCN1C[C@@H](NC(=O)Nc2cc(-c3ccc(C(=O)OC)cc3)nn2C)[C@H](c2ccc(F)c(F)c2)C1 [Example 121, methyl 4-(5-(3-((3S,4R)-4-(3,4-difluorophenyl)-1-(2-methoxyethyl)pyrrolidin-3-yl)ureido)-1-methyl-1H-pyrazol-3-yl)benzoate]
17 | 100 to 1000 nM | COCCN1C[C@@H](NC(=O)Nc2cc(-c3ccccc3)nn2CCO)[C@H](c2ccc(F)c(F)c2)C1 [Example 122, 1-((3S,4R)-4-(3,4-difluorophenyl)-1-(2-methoxyethyl)pyrrolidin-3-yl)-3-(1-(2-hydroxy-ethyl)-3-phenyl-1H-pyrazol-5-yl)urea]
18 | < 100 nM | COCCN1C[C@@H](NC(=O)Nc2cc(-c3ccccc3)nn2-c2ccccc2)[C@H](c2ccc(F)c(F)c2)C1 [Example 126, 1-((3S,4R)-4-(3,4-difluorophenyl)-1-(2-methoxyethyl)pyrrolidin-3-yl)-3-(1,3-diphenyl-1H-pyrazol-5-yl)urea]
19 | < 100 nM | COCCCc1nn(-c2ccccc2)c(NC(=O)N[C@@H]2CN(CCOC)C[C@H]2c2ccc(F)c(F)c2)c1C [Example 127, 1-((3S,4R)-4-(3,4-difluorophenyl)-1-(2-methoxyethyl)pyrrolidin-3-yl)-3-(3-(3-methoxypropyl)-4-methyl-1-phenyl-1H-pyrazol-5-yl)urea]
20 | < 100 nM | COCCN1C[C@@H](NC(=O)Nc2c(C)c(C)nn2-c2ccccc2)[C@H](c2ccc(F)cc2)C1 [Example 129, 1-(3,4-dimethyl-1-phenyl-1H-pyrazol-5-yl)-3-((3S,4R)-4-(4-fluorophenyl)-1-(2-methoxyethyl)pyrrolidin-3-yl)urea]
21 | < 100 nM | CCOc1nn(-c2ccccc2)c(NC(=O)N[C@@H]2CN(CCOC)C[C@H]2c2ccc(F)c(F)c2)c1C [Example 135, 1-((3S,4R)-4-(3,4-difluorophenyl)-1-(2-methoxyethyl)pyrrolidin-3-yl)-3-(3-ethoxy-4-methyl-1-phenyl-1H-pyrazol-5-yl)urea]
